Assay results published in patent US11285156B2, “Substituted piperazines as KRAS G12C inhibitors” (Amgen Inc., priority 2018, dated 2022).
Read-outs that look alike come from different tables or passages of the source.

What was measured:
[1] = target: GDP-bound KRAS protein (aa 1-169), containing both G12C and C118A amino acid substitutions (Homo sapiens (Human), UniProt P01116, C118A/G12C); test: Coupled nucleotide exchange assay (SOS-mediated nucleotide exchange, AlphaScreen); type: biochemical; conditions: 5 min compound pre-incubation; for IC50: read-out: Coupled exchange IC50 (5 min; μM)
Sequence of GDP-bound KRAS protein (aa 1-169), containing both G12C and C118A amino acid substitutions (P01116 other isoform, or with tags, fused parts or gaps G12C/C118A): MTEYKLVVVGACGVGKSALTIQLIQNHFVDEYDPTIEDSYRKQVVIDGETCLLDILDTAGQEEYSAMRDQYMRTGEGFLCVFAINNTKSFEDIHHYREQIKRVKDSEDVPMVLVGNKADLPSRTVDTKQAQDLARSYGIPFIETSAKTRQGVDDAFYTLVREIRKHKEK

[2] = tested on: Phosphorylation of ERK1/2 in MIA PaCa-2 cells; test: Phospho-ERK1/2 MSD assay in MIA PaCa-2 cells; type: cell-based; conditions: read-out: p-ERK IC50 (2 h, MiaPaCa-2; μM), 2 h compound treatment, MIA PaCa-2 cells, EGF stimulated
In short: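 Phospho-ERK1/2 measured by MSD electrochemiluminescence kit in RIPA lysates of MIA PaCa-2 cells. Cells were treated with compound titrations for 2 or 4 h at 37 °C, 5% CO2, followed by a 10 min pulse of 10 ng/mL EGF.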

[3] = tested on: Phosphorylation of ERK1/2 in A549 cells; test: Phospho-ERK1/2 MSD assay in A549 cells; type: cell-based; conditions: read-out: p-ERK IC50 (2 h, A549; μM), 2 h compound treatment, A549 cells, EGF stimulated
In short: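 Dose-response treatment lasted 2 or 4 h in RPMI 1640/10% FBS at 37 °C. EGF-stimulated (10 ng/mL, 10 min) ERK1/2 phosphorylation was then quantified in cell lysates with a Meso Scale Discovery phospho-ERK1/2 assay.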

Compound	IC50 [1]	IC50 ([2]; Homo sapiens, MIA PaCa-2, 2 h)	IC50 ([3]; Homo sapiens, A549, 2 h)	IC50 [2]	IC50 [3]	Coupled exchange IC50 (5 min; μM) [1]
C=CC(=O)N1C[C@H](C)N(c2nc(=O)n(-c3c(C(C)C)nc(OC)nc3C(C)C)c3nc(-c4ccccc4F)c(Cl)cc23)C[C@H]1C [Example 154, 6-Chloro-1-(4,6-diisopropyl-2-methoxy-pyrimidin-5-yl)-4-[(2S,5R)-2,5-dimethyl-4-prop-2-enoyl-piperazin-1-yl]-7-(2-fluorophenyl)pyrido[2,3-d]pyrimidin-2-one]	0.062 µM	0.049 µM	6.96 µM			
C=CC(=O)N1C[C@H](C)N(c2nc(=O)n(-c3c(C)ccnc3C(C)C)c3nc(-c4c(F)cccc4C#N)c(Cl)cc23)C[C@H]1C (atropisomer, axis not shown; (M)) [Example 92-40, (M)-2-[6-Chloro-4-[(2S,5R)-2,5-dimethyl-4-prop-2-enoyl-piperazin-1-yl]-1-(2-isopropyl-4-methyl-3-pyridyl)-2-oxo-pyrido[2,3-d]pyrimidin-7-yl]-3-fluoro-benzonitrile]	0.244 µM	0.14 µM	> 7.5 µM			
C=CC(=O)N1C[C@H](C)N(c2nc(=O)n(-c3c(Cl)ccnc3C(C)C)c3nc(OC)c(-c4ccccc4F)cc23)C[C@H]1C [Example 55-52, 1-(4-Chloro-2-isopropyl-3-pyridyl)-4-[(2S,5R)-2,5-dimethyl-4-prop-2-enoyl-piperazin-1-yl]-6-(2-fluorophenyl)-7-methoxy-pyrido[2,3-d]pyrimidin-2-one]	10.2 µM	10 µM	> 7.5 µM			
C=CC(=O)N1C[C@H](C)N(c2nc(=O)n(-c3c(N(C)C)ccnc3C(C)C)c3nc(-c4ccccc4C(C)C)c(Cl)cc23)C[C@H]1C [Example 103-1, 4-((2S,5R)-4-Acryloyl-2,5-dimethylpiperazin-1-yl)-6-chloro-1-(4-(dimethylamino)-2-isopropylpyridin-3-yl)-7-(2-isopropylphenyl)pyrido[2,3-d]pyrimidin-2(1H)-one]	0.105 µM		> 7.5 µM	0.107 µM		
C=CC(=O)N1C[C@H](C)N(c2nc(=O)n(-c3c(C)ccnc3C(C)C)c3nc(-c4ccccc4OC(F)F)c(Cl)cc23)C[C@H]1C (atropisomer, axis not shown; (M)) [Example 92-14, (M)-6-Chloro-7-[2-(difluoromethoxy)phenyl]-4-[(2S,5R)-2,5-dimethyl-4-prop-2-enoyl-piperazin-1-yl]-1-(2-isopropyl-4-methyl-3-pyridyl)pyrido [2,3-d]pyrimidin-2-one]	0.121 µM	0.074 µM	> 7.5 µM			
C=CC(=O)N1C[C@H](C)N(c2nc(=O)n(-c3c(C)ccnc3C(C)C)c3nc(-c4ccccc4C(F)F)c(Cl)cc23)C[C@H]1C (atropisomer, axis not shown; (M)) [Example 92-16, (M)-6-Chloro-7-[2-(difluoromethyl)phenyl]-4-[(2S,5R)-2,5-dimethyl-4-prop-2-enoyl-piperazin-1-yl]-1-(2-isopropyl-4-methyl-3-pyridyl)pyrido [2,3-d]pyrimidin-2-one]	0.043 µM	0.015 µM	> 7.5 µM			
C=CC(=O)N1C[C@H](C)N(c2nc(=O)n(-c3c(CN4CC(F)(F)C4)cccc3C(C)C)c3nc(-c4ccccc4F)c(Cl)cc23)C[C@H]1C [Example 80-11, 6-chloro-1-[2-[(3,3-difluoroazetidin-1-yl)methyl]-6-isopropyl-phenyl]-4-[(2S,5R)-2,5-dimethyl-4-prop-2-enoyl-piperazin-1-yl]-7-(2-fluorophenyl)pyrido[2,3-d]pyrimidin-2-one]	0.078 µM	0.222 µM	> 7.5 µM			
C=CC(=O)N1C[C@H](C)N(c2nc(=O)n(-c3c(C)ccnc3C(C)C)c3nc(-c4cccc(F)c4N)c(Cl)cc23)C[C@H]1C (atropisomer, axis not shown; (M)) [Example 92-17, (M)-7-(2-Amino-3-fluoro-phenyl)-6-chloro-4-[(2S,5R)-2,5-dimethyl-4-prop-2-enoyl-piperazin-1-yl]-1-(2-isopropyl-4-methyl-3-pyridyl)pyrido[2,3-d]pyrimidin-2-one]	0.042 µM	0.018 µM	> 7.5 µM			
C=CC(=O)N1C[C@H](C)N(c2nc(=O)n(-c3c(N(CC)CC)ccnc3C(C)C)c3nc(-c4ccccc4C)c(Cl)cc23)C[C@H]1C [Example 103-6, 6-chloro-1-[4-(diethylamino)-2-isopropyl-3-pyridyl]-4-[(2S,5R)-2,5-dimethyl-4-prop-2-enoyl-piperazin-1-yl]-7-(o-tolyl)pyrido[2,3 d]pyrimidin-2-one]	0.08 µM	0.474 µM	> 7.5 µM			
C=CC(=O)N1C[C@H](C)N(c2nc(=O)n(-c3c(CC)ccnc3C(C)C)c3nc(-c4ccccc4F)c(Cl)cc23)C[C@H]1C (single isomer, unassigned) [Example 55-58-1]	0.03 µM			0.107 µM	> 7.5 µM	
C=CC(=O)N1C[C@H](C)N(c2nc(=O)n(-c3c(C)ccnc3C(C)C)c3nc(-c4ccccc4NC(=O)OC)c(Cl)cc23)C[C@H]1C (atropisomer, axis not shown; (M)) [Example 129-7, (M)-Methyl-N-[2-[6-chloro-4-[(2S,5R)-2,5-dimethyl-4-prop-2-enoyl-piperazin-1-yl]-1-(2-isopropyl-4-methyl-3-pyridyl)-2-oxo-pyrido[2,3-d]pyrimidin-7-yl]phenyl]carbamate]	0.064 µM	0.025 µM	> 7.5 µM			
C=CC(=O)N1C[C@H](C)N(c2nc(=O)n(-c3c(C)ccnc3C(C)C)c3nc(-c4cccc5cc[nH]c45)c(Cl)cc23)C[C@H]1C (atropisomer, axis not shown; (M)) [Example 92-11, (M)-6-Chloro-4-[(2S,5R)-2,5-dimethyl-4-prop-2-enoyl-piperazin-1-yl]-7-(lH-indol-7-yl)-1-(2-isopropyl-4-methyl-3-pyridyl)pyrido [2,3-d]pyrimidin-2-one]	0.086 µM	0.262 µM	> 7.5 µM			
C=CC(=O)N1C[C@H](C)N(c2nc(=O)n(-c3c(C)ccnc3C(C)C)c3nc(-c4cc(F)c(F)cc4O)c(Cl)cc23)C[C@H]1C (atropisomer, axis not shown; (M)) [Example 124-13, (M)-6-Chloro-7-(4,5-difluoro-2-hydroxy-phenyl)-4-[(2S,5R)-2,5-dimethyl-4-prop-2-enoyl-piperazin-1-yl]-1-(2-isopropyl-4-methyl-3-pyridyl)pyrido[2,3-d]pyrimidin-2-one]	0.068 µM	0.094 µM	> 7.5 µM			
C=CC(=O)N1CCN(c2nc(=O)n(-c3c(C)ccnc3C(C)C)c3nc(-c4c(O)cccc4F)c(Cl)cc23)CC1CC#N (atropisomer, axis not shown; (M)) [Example 144-3, (M)-2-[4-[6-Chloro-7-(2-fluoro-6-hydroxy-phenyl)-1-(2-isopropyl-4-methyl-3-pyridyl)-2-oxo-pyrido[2,3-d]pyrimidin-4-yl]-1-prop-2-enoyl-piperazin-2-yl]acetonitrile]	0.166 µM	2.41 µM	> 7.5 µM			
C=CC(=O)N1C[C@H](C)N(c2nc(=O)n(-c3c(C)cc(CN(C)C)cc3C(C)C)c3nc(-c4c(O)cccc4F)c(F)cc23)C[C@H]1C (single isomer, unassigned) [Example 80-21-2]	0.061 µM			0.072 µM	> 7.5 µM	
C=CC(=O)N1C[C@H](C)N(c2nc(=O)n(-c3c(C)ccnc3C(C)C)c3nc(-c4c(C)cccc4F)c(F)cc23)C[C@H]1C (atropisomer, axis not shown; (M)) [Example 94-10, (M)-4-[(2S,5R)-2,5-Dimethyl-4-prop-2-enoyl-piperazin-1-yl]-6-fluoro-7-(2-fluoro-6-methyl-phenyl)-1-(2-isopropyl-4-methyl-3-pyridyl)pyrido [2,3-d]pyrimidin-2-]	0.137 µM	0.079 µM	> 7.5 µM			
C=CC(=O)N1CCN(c2nc(=O)n(-c3c(C)ccnc3C(C)C)c3nc(Cl)c(Cl)cc23)CC1CC#N (atropisomer, axis not shown; (M)) [Example 144-2-2, (M)-2-[4-[6,7-Dichloro-1-(2-isopropyl-4-methyl-3-pyridyl)-2-oxo-pyrido[2,3-d]pyrimidin-4-yl]-1-prop-2-enoyl-piperazin-2-yl]acetonitrile]	9.13 µM	3.1 µM	4 µM			
C=CC(=O)N1C[C@H](C)N(c2nc(=O)n(-c3c(CN(C)C)cccc3C(C)C)c3nc(-c4ccccc4F)c(Cl)cc23)C[C@H]1C (single isomer, unassigned) [Example 80-14-2]	0.061 µM	0.031 µM	> 7.5 µM			
C=CC(=O)N1C[C@H](C)N(c2nc(=O)n(-c3c(C(C)C)nc(N(C)C(C)=O)nc3C(C)C)c3nc(-c4ccccc4F)c(Cl)cc23)C[C@H]1C [Example 187, N-[5-[6-Chloro-4-[(2S,5R)-2,5-dimethyl-4-prop-2-enoyl-piperazin-1-yl]-7-(2-fluorophenyl)-2-oxo-pyrido[2,3-d]pyrimidin-1-yl]-4,6-diisopropyl-pyrimidin-2-yl]-N-methyl-acetamide]		0.081 µM	0.317 µM			0.09 µM
